Reference: paper PMC6010102, “N-thioalkylcarbazoles derivatives as new anti-proliferative agents: synthesis, characterisation and molecular mechanism evaluation” (Journal of Enzyme Inhibition and Medicinal Chemistry, 2018)

Experiments:
[1] = test system: MDA-MB-231 human breast cancer cells; test: MTT cell viability, MDA-MB-231; type: cell-based; conditions: 72 h exposure, mean ± SD, read-out: Antiproliferative activity IC50, MDA-MB-231
From the text: (§1) The six cell lines used in this work were purchased from American Type Culture Collection (ATCC, Manassas, VA). MCF-7 human breast cancer cells, oestrogen receptor (ER) positives, were maintained in Dulbecco’s Modified Eagle’s Medium/Nutrient Mixture F-12 Ham (DMEM/F12), supplemented with 5% foetal bovine serum (FBS) and 100 U/ml penicillin/streptomycin, as previously described. MDA-MB-231, human breast cancer cells, oestrogen receptor (ER) negative, were maintained in Dulbecco’s Modified Eagle’s Medium/Nutrient Mixture F-12 Ham (DMEM/F12), supplemented with 5% Newborn Calf Serum (NCS) and 100 U/ml penicillin/streptomycin. HeLa human epithelial cervix carcinoma cells, oestrogen receptor (ER) negative, and ISHIKAWA human endometrial adenocarcinoma cell, oestrogen receptor positive, were maintained in minimum essential medium (MEM), supplemented with 10% FBS, 100 U/ml penicillin/streptomycin and 1% non-essential amino acid. 3T3-L1 cells line of murine fibroblasts of embryonic type, were maintained in DMEM, supplemented with 10% NCS and 100 U/ml penicillin/streptomycin. MCF-10A human mammary epithelial cells were cultured in DMEM/F12 medium, supplemented with 5% horse serum (HS) (Eurobio, Les Ullis, Cedex, France), 100 U/ml penicillin/streptomycin, […] hydrocortisone, 20 ng/ml hEGF (human epidermal growth factor), 10 μg/ml insulin and […] cholera enterotoxin (Sigma-Aldrich, Milano, Italy). Cells were maintained at 37 °C in a humidified atmosphere of 95% air and 5% CO2 and periodically screened for contamination.
(§2) MDA-MB-231, MCF-7, HeLa and ISHIKAWA cells were grown in complete medium and, before being treated, they were serum deprived for 24 h, to allow cell cycle synchronisation. Then cells were grown in phenol red-free medium supplemented with 1% DCC (destran-coated charcoal treated) FBS, then treated with increasing concentrations (0.1, 1, 10, 20, 40, 100 µM) of each compound for 72 h. Compounds were dissolved in dimethylsulphoxide (DMSO) (Sigma, St. Louis, MO) and diluted in each cell medium. Untreated cells, used as a control, were added with DMSO alone (final concentration 0.1%). Cell viability was assessed using the 3-[4,5-dimethylthiazol-2-yl]-2,5-diphenyltetrazolium bromide reagent (MTT), according to the protocol from manufacturer (Sigma-Aldrich, Milan, Italy), as previously described[37] ^, [38]. For each sample, the mean absorbance, measured at 570 nm, was expressed as a percentage of the control and plotted versus drug concentration to determine for each cell line the IC50 values (namely, drugs concentrations able to reduce cell viability of 50% with respect to the control), using GraphPad Prism 5 Software (GraphPad Inc., San Diego, CA)[39]. Each experiment was carried out in quadruplicate. Standard deviations (SD) were shown.

[2] = test system: ISHIKAWA human endometrial adenocarcinoma cells; test: MTT cell viability, ISHIKAWA; type: cell-based; conditions: 72 h exposure, mean ± SD, read-out: Antiproliferative activity IC50, ISHIKAWA
From the text: as §1, §2

[3] = test system: MCF-7 human breast cancer cells; test: MTT cell viability, MCF-7; type: cell-based; conditions: MCF7, 72 h exposure, mean ± SD, read-out: Antiproliferative activity IC50, MCF-7
From the text: as §1, §2

[4] = test system: HeLa human epithelial cervix carcinoma cells; test: MTT cell viability, HeLa; type: cell-based; conditions: 72 h exposure, mean ± SD, read-out: Antiproliferative activity IC50, HeLa
From the text: as §1, §2

[5] = test system: 3T3-L1 murine fibroblasts; test: MTT cell viability, 3T3-L1; type: cell-based; conditions: Mus musculus, non-tumoural cells, 72 h exposure, mean ± SD, read-out: Antiproliferative activity IC50, 3T3-L1
From the text: as §1, §2

[6] = test system: MCF-10A human mammary epithelial cells; test: MTT cell viability, MCF-10A; type: cell-based; conditions: non-tumoural cells, 72 h exposure, mean ± SD, read-out: Antiproliferative activity IC50, MCF-10a
From the text: as §1, §2

[7] = biological target: hTopoII (Homo sapiens, UniProt P11388); test: Human topoisomerase II decatenation assay; type: biochemical; conditions: 50 µM, reference molecule
Sequence of hTopoII (P11388 whole entry): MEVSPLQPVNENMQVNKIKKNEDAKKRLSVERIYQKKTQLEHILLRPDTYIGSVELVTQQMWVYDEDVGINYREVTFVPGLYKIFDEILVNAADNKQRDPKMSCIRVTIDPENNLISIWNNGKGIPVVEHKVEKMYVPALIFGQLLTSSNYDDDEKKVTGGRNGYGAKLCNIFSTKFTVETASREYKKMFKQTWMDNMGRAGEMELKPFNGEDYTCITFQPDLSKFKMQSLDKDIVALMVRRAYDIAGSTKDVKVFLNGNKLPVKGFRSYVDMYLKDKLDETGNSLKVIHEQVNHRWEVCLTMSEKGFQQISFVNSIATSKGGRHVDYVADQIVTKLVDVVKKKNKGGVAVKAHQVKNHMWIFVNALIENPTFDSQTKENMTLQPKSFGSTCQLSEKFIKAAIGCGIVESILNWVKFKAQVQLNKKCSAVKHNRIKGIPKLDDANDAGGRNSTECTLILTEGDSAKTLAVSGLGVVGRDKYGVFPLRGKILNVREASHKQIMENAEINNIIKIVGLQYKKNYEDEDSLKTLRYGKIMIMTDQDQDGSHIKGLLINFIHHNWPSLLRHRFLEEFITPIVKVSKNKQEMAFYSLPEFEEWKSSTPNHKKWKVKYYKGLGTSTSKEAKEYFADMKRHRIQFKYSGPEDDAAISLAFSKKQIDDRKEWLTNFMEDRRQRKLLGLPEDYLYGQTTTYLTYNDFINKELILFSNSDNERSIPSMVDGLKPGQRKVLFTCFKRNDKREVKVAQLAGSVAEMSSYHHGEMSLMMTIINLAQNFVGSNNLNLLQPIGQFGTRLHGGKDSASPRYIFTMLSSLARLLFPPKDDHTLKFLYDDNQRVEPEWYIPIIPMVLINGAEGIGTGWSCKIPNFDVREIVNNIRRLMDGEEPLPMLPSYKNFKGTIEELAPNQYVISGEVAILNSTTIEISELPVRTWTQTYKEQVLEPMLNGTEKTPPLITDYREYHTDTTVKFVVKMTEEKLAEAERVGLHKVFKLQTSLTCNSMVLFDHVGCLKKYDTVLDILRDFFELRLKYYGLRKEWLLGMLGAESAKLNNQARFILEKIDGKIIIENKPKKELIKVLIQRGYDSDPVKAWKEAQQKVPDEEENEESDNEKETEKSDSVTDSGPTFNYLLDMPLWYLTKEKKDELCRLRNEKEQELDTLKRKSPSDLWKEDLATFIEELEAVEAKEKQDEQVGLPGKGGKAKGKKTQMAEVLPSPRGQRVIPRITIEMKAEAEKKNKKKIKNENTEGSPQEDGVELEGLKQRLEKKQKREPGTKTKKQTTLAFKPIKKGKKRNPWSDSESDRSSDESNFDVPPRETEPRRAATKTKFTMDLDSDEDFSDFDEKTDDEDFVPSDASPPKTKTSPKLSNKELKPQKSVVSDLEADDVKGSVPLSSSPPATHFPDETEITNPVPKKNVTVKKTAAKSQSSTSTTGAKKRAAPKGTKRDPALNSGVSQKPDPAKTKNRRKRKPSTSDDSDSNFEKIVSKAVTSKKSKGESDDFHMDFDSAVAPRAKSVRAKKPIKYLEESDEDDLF
Experimental: Human topoisomerase II decatenation assay: hTopoII decatenation assays were performed as reported in Iacopetta et al.[8].
Figure 2. hTopoII inhibition assay. kDNA was incubated with human Topoisomerase II in the absence (lane C, vehicle DMSO) or presence of compound 5c (lane 5c) or Ellipticine (lane E) at 10 and 50 µM, respectively. Lane K, kinetoplast DNA (kDNA).

For `Cc1ccc2c(c1)c1c(C)ccc(C)c1n2CCCCCCCCS` [6b, 8-(1,4,6-Trimethyl-9H-carbazol-9-yl)-octane-1-thiol], the IC50 [1] was over 100 µM, the IC50 [2] was over 100 µM and the IC50 [3] was over 100 µM. The IC50 [4] was over 100 µM, the IC50 [5] was over 100 µM and the IC50 [6] was over 100 µM.

Work on `Cc1ccc2c(c1)c1c(C)ccc(C)c1n2CCCCCCCS` [5b, 7-(1,4,6-Trimethyl-9H-carbazol-9-yl)-heptane-1-thiol] yielded an IC50 [1] of over 100 µM, an IC50 [2] of over 100 µM and an IC50 [3] of over 100 µM. The IC50 [4] was over 100 µM, the IC50 [5] was over 100 µM and the IC50 [6] was over 100 µM.

With `Cc1c2ccncc2c(C)c2c1[nH]c1ccccc12` [Ellipticine, reference compound] the “hTopoII inhibition (kDNA decatenation)” value [7] was “complete inhibition”, the IC50 [1] was 1.85 ± 0.15 µM and the IC50 [2] was 1.7 ± 0.8 µM. For the same compound, the IC50 [3] was 1.25 ± 0.3 µM, the IC50 [4] was 1.05 ± 0.5 µM and the IC50 [5] was 0.98 ± 0.7 µM. It also gave an IC50 [6] of 1.2 ± 0.2 µM.

Work on `SCCCCCCCCn1c2ccccc2c2ccccc21` [6a, 8-(9H-Carbazol-9-yl)octane-1-thiol] yielded an IC50 [1] of over 100 µM, an IC50 [2] of over 100 µM and an IC50 [3] of over 100 µM. For the same compound, the IC50 [4] was over 100 µM, the IC50 [5] was over 100 µM and the IC50 [6] was over 100 µM.

`Cc1ccc(C)c2c1c1cc(Br)ccc1n2CCCCCCCCS` [6c, 8-(6-Bromo-1,4-dimethyl-9H-carbazol-9-yl)-octane-1-thiol] was tested, and the IC50 [1] was over 100 µM, the IC50 [2] was over 100 µM and the IC50 [3] was over 100 µM. The IC50 [4] was over 100 µM, the IC50 [5] was over 100 µM and the IC50 [6] was over 100 µM.

With `SCCCCCCCn1c2ccccc2c2ccccc21` [5a, 7-(9H-Carbazol-9-yl)heptane-1-thiol] the IC50 [1] was 39.9 ± 0.52 µM, the IC50 [2] was 19.2 ± 1.13 µM and the IC50 [3] was 50.4 ± 0.96 µM. It also gave an IC50 [4] of 12.8 ± 0.62 µM, an IC50 [5] of over 100 µM and an IC50 [6] of over 100 µM.

Compound `Cc1ccc2c(c1)c1c(C)ccc(C)c1n2CCCCCCCCCS` [7b, 9-(1,4,6-Trimethyl-9H-carbazol-9-yl)-nonane-1-thiol] has an IC50 [1] of over 100 µM, an IC50 [2] of over 100 µM and an IC50 [3] of over 100 µM. It also gave an IC50 [4] of over 100 µM, an IC50 [5] of over 100 µM and an IC50 [6] of over 100 µM.

Work on `Cc1ccc(C)c2c1c1cc(Br)ccc1n2CCCCCCCCCS` [7c, 9-(6-Bromo-1,4-dimethyl-9H-carbazol-9-yl)-nonane-1-thiol] yielded an IC50 [1] of over 100 µM, an IC50 [2] of over 100 µM and an IC50 [3] of over 100 µM. For the same compound, the IC50 [4] was over 100 µM, the IC50 [5] was over 100 µM and the IC50 [6] was over 100 µM.

For `SCCCCCCCCCn1c2ccccc2c2ccccc21` [7a, 9-(9H-Carbazol-9-yl)nonane-1-thiol], the IC50 [1] was over 100 µM, the IC50 [2] was over 100 µM and the IC50 [3] was over 100 µM. The IC50 [4] was over 100 µM, the IC50 [5] was over 100 µM and the IC50 [6] was over 100 µM.
